Source: patent publication US8062678B2, “Extractive of Piper laetispicum C.DC., its process and its uses” (priority 2004, dated 2011)

Assays:
[1] = tested on: rat brain synaptosome (re)uptake of noradrenaline (3H-NA); test: Inhibition of brain synaptosome uptake of noradrenaline; assay type: biochemical; conditions: positive control drug 0.1 mM; 3H-NA 300 nM, 37° C.; lower CPM = more inhibition
Protocol: 10 μl of substrate (^3H-5HT, ^3H-NA or ^3H-DA; final reaction concentration: 300 nM) is added in a 4° C. environment and is thoroughly mixed, and the tubes are placed in a 37° C. water bath for a warm bath for 5 minutes. After that, precooled Tris-Krebs buffer is added into each tube to terminate reaction, and the multichannel cell harvestor is immediately used for sucking filtration through fiberglass filter membrane, and the same solution in the same volume is used to wash tubes and filter. The filter membrane is removed and oven dried. The filter membrane is placed in the scintillation vial, methylbenzene scintillation fluid is added, and counting is performed with the β-liquid scintillation counter.

[2] = tested on: mouse; test: Mouse swimming test; assay type: in vivo; conditions: 30 mg/kg/d intragastric, 14 days, within 4 minutes, x ± s, n = 10
Protocol: The despair test as put forth by Porsolt et al can serve as the evaluation model for the effects of antidepressant drugs. In this model, a mouse or a rat is placed in a limited and inescapable space for swimming, and the animal can be induced to have motionless status. Such status is a reflection of the animal's despair, and the status can be inhibited by some effective antidepressant drugs.
One (1) hour after the drug is administered on Day 14, the animal is placed into a 10×20 cm glass cylinder with water depth at 8˜10 cm and water temperature at 22˜24° C. Beginning from the 2nd minute, the accumulated time of motionless status within 4 minutes is recorded, and the results are as shown in Table 7.

[3] = target: T1, MAO-B in mouse brain (Mus musculus, UniProt Q8BW75); test: Inhibition of monoamine oxidase B in the brains of mice; assay type: in vivo; conditions: 25 mg/kg; mouse brain after 14 days; x ± SD, n = 10
T1 construct: from tissue; host or cells: mouse brain
T1 sequence (Q8BW75 1-520): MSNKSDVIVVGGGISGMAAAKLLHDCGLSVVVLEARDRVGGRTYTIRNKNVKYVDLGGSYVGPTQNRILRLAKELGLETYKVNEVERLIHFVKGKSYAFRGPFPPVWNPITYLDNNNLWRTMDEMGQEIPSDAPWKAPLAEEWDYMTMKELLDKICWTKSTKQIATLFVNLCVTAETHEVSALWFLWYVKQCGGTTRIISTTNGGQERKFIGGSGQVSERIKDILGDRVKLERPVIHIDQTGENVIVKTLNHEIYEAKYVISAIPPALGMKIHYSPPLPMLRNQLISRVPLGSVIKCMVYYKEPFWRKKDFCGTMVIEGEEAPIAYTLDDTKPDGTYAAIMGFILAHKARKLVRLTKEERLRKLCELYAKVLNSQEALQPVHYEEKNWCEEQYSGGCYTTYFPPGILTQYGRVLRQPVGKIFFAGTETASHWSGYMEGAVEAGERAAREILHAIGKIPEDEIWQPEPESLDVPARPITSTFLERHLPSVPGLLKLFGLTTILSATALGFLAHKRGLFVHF
Text: (§1) The biological function of monoamine oxidase (MAO) lies in its adjustment of the level for in vivo endogenous amines (noradrenaline, dopamine and 5-hydroxytryptamine) and exogenous amine substances. Based on its substrate and its inhibitor specificity, monoamine oxidase can be divided into two types (MAO-A and MAO-B). Dopamine and tyramine are two MAO substrates, 5-HT and noradrenaline are Type A substrates, while β-phenethylamine and benzylamine are Type B substrates, and iprazid and tranylcypromine are nonselective inhibitors for MAO.
(§2) The mice are randomized into groups, and based on Table 6, intragastric administration of the corresponding doses of test Drug A (Sample 1-1 in Case of Implementation 1) is performed for each of the groups, which are administered once a day consecutively for 14 days, and normal saline is used as a control at the same time, and the positive control is paxil. One (1) hour after the last administration, the animals are put to death through neck dislocation, and the brain is immediately taken for testing MAO activity.

[4] = tested on: rat brain synaptosome (re)uptake of dopamine (3H-DA); test: Inhibition of brain synaptosome uptake of dopamine; assay type: biochemical; conditions: positive control drug 1 mM; 3H-DA 300 nM, 37° C.; lower CPM = more inhibition
Text: The physiological mechanism for the […] and dopaminergic functions is similar to that for 5-hydroxytryptamine. Clinically, there are many antidepressant drugs that can block the reuptake of noradrenaline and/or 5-hydroxytryptamine and/or dopamine.
First of all, the method of Whittaker et al (Whittaker V P & Barker L A. The subcellular tractionation of brain tissue with special reference to the preparation of synaptosomes and their component organelles. In: Fried R. ed. In Methods in Neurochemistry, Vol. New York: Marcel Dakker, Inc, 1972) is referred to for preparing brain synaptosome, and the specific procedures are: decapitate the rat and take out the cerebrum quickly, place it in precooled normal saline, and remove cerebral pia mater and vascular tissues. Take cerebral cortex, and place it in cold sugar solution. Use ultrasonic cell disruptor for producing homogenate and centrifuging to obtain refined brain synaptosome for future use. […]

[5] = target: T2, MAO-A in mouse brain (Mus musculus, UniProt Q64133); test: Inhibition of monoamine oxidase A in the brains of mice; assay type: in vivo; conditions: 25 mg/kg; mouse brain after 14 days; x ± SD, n = 10
T2 construct: from tissue; host or cells: mouse brain
T2 sequence (Q64133 1-526): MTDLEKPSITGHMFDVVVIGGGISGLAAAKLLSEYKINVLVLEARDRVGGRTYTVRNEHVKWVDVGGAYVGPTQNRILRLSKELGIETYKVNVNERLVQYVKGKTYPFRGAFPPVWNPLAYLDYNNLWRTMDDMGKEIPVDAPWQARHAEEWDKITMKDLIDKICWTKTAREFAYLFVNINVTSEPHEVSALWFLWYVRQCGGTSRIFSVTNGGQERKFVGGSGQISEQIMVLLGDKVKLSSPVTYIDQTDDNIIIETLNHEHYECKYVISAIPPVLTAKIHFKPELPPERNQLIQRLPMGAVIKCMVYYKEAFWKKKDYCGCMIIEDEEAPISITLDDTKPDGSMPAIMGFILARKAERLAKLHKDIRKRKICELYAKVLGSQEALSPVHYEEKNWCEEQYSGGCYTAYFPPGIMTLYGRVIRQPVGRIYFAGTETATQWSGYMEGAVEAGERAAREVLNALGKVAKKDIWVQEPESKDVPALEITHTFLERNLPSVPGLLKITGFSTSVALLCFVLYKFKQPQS
Text: as §1, §2

[6] = tested on: mouse; test: Mouse tail suspension test; assay type: in vivo; conditions: 50 mg/kg/d intragastric, 14 days, within 6 minutes, x ± s, n = 10
Text: The tail suspension test is a simple and easy experimental method introduced by Stern et al in 1985 for evaluation of antidepressant drugs. […] Clinically effective antidepressant drugs can reduce the motionless time of the mouse after it cannot successfully escape through its efforts following being suspended at the tail.
The mice are randomized into groups, and each of the groups receives intragastric administration of the corresponding dose of Drag A (Sample 1-1 in Case of Implementation 1), B (Sample 10 in Case of Implementation 1), C (Sample 7 in Case of Implementation 1), D (Sample 3 in Case of Implementation 1) and E (Sample 5 in Case of Implementation 1), which is administered once a day consecutively for 14 days, and normal saline is used as control at the same time, and positive control is Venlafaxine. One (1) hour after the drug is administered for the last time, the mouse tail suspension test is performed, the duration is 6 minutes, and the stationary and motionless time within the 6 minutes is recorded, and the results are as shown in Table 9.

[7] = tested on: rat; test: Rat swimming test; assay type: in vivo; conditions: 30 mg/kg/d intragastric, 14 days, 5 minutes swimming, x ± s, n = 10
Protocol: After having fasted for 4 hours, the rats are placed in a 40×18 cm glass cylinder with water depth at 15 cm (water temperature at 25° C.) for swimming for 15 minutes, and are dried with a hot blower. Then, based on Table 8, the rats are randomized into 6 groups, and each of the groups receives intragastric administration of the corresponding dose of Drug A (Sample 1-1 in Case of Implementation 1) and B (Sample 10 in Case of Implementation 1), which is administered once a day consecutively for 14 days, and normal saline is used as control at the same time, and positive control is Venlafaxine. One (1) hour after the drug is administered for the last time, the rat swimming test begins, the swimming time is 5 minutes, and the motionless time during the 5 minutes for which they are swimming is recorded, and the results are as shown in Table 8.

[8] = tested on: mouse; test: Analgesic effect, writhing test; assay type: in vivo; conditions: 50 mg/kg; benzoquinone i.p. 30 minutes after drug; within 10 minutes; x ± s, n = 10
Protocol: A chemical stimulant with definite solvents and at a definite concentration is injected into the abdominal cavity of the mouse to stimulate splanchnoderm and peritoneum parietale so as to cause deep, large-area and long-time inflammatory pain and result in behavioral reactions in the mouse such as concaving the abdomen, extending the trunk and back limbs and raising the buttocks, which are called the writhing response. […]
The mice are randomized into groups, and are respectively given test drugs based on Table 12, namely Drug A (Sample 1-1 in Case of Implementation 1), C (Sample 7 in Case of Implementation 1) and B (Sample 10 in Case of Implementation 1), and normal saline is used as control at the same time, and positive control group is acetyl salicylic acid. The mice are respectively injected intraperitoneally with 0.20 ml of 0.02% benzoquinone water solution 30 minutes later, and are immediately placed into a box with four sides sealed, and, beginning from the first occurrence of writhing responses in the mice, time is kept for 10 minutes, and the number of writhing responses in the mice is recorded within 10 minutes thereafter, and the results are as shown in Table 12.

[9] = tested on: mouse; test: Anti-anxiety effect, mouse four board test; assay type: in vivo; conditions: 1 mg/kg/d; 30 minutes after drug; within 10 minutes; x ± s, n = 8
Protocol: The mice are randomized into groups, and are respectively given test drugs based on Table 10, namely Drug A (Sample 1-1 in Case of Implementation 1), B (Sample 10 in Case of Implementation 1), C (Sample 7 in Case of Implementation 1), F (Sample 9 in Case of Implementation 1) and G (Sample 11 in Case of Implementation 1), and normal saline is used as control, and positive control group is diazepam. The mouse is placed on the boards 30 minutes after the drug is administered, and is made to explore for 15 seconds. After that, whenever the mouse moves from one board to another board, one electric shock is given with amperage at 0.35 mA and duration time at 0.5 s. The mouse should present an obvious escape response because of this, and usually moves across 2 boards or 3 boards, if the mouse continues to run, no electric shock is given for […] thereafter.

Question: With `CNCCCN1c2ccccc2CCc2ccccc21` [Desipramine] as the compound, how does the “Inhibition of Monoamine Uptake (CPM) Noradrenaline” value [1] read?
Answer: The value was 1499 CPM.

Question: For `CNCCC(Oc1ccc(C(F)(F)F)cc1)c1ccccc1` (stereo not drawn) [Fluoxetine], which “Accumulated Motionless Time” value [2] is on record?
Answer: The value was 73.7 ± 17.2 s.

Question: What does the source list for `Fc1ccc([C@@H]2CCNC[C@H]2COc2ccc3c(c2)OCO3)cc1` [Paxil]?
Answer: MAO-B (OD) [3]: 0.025 ± 0.008 OD; Inhibition of Monoamine Uptake (CPM) Dopamine [4]: 1197 CPM; MAO-A (OD) [5]: 0.012 ± 0.005 OD

Question: What does the source list for `COc1ccc(C(CN(C)C)C2(O)CCCCC2)cc1` (stereo not drawn) [Venlafaxine]?
Answer: Accumulated Motionless Time [6]: 57.5 ± 43.0 s; Accumulated Motionless Time [7]: 211.2 ± 24.7 s

Question: With `CC(=O)Oc1ccccc1C(=O)O` [acetyl salicylic acid] as the compound, how does the “Accumulated Number of Writhing Responses” value [8] read?
Answer: The value was 9.89 ± 1.09.

Question: `CN1C(=O)CN=C(c2ccccc2)c2cc(Cl)ccc21` [diazepam] was tested. Which “Accumulated Number of Electric Shocks” value [9] did it give?
Answer: The value was 12.78 ± 2.05.
